Experimental data from patent US20150320706A1, “FORMULATIONS AND METHODS OF TREATING ALZHEIMER'S DISEASE AND OTHER PROTEINOPATHIES BY COMBINATION THERAPY” (CHIESI FARMACEUTICI S.P.A., priority 2014, published 2015).
“Also recorded” adds a separate entry of the source.

What was measured:
microglia = conditions: response to an Aβ42 stimulus; cited from earlier work
[1] = tested on: TNF-α and soluble CD 40 ligand (sCD40L); conditions: healthy subjects and individuals with MCI; cited from earlier work
Aβ42 = conditions: in vitro; cited from earlier work
[2] = in vivo, cited from earlier work
Notch = conditions: cited from earlier work
sCD40L and TNF-α = test: Neuroinflammation biomarkers in cerebrospinal fluid of MCI patients; assay type: in vivo, human; conditions: MCI patients, 200, 400 and 600 mg/day
Method: (§1) Methods: At the end of a 14-week double-blind, placebo-controlled study in 96 MCI patients evaluating three titrated dose regimens of CHF 5074 (200, 400 and 600 mg/day), patients were given the option to enter a 76-week open label extension study. Patients received CHF 5074 at the dose equal to that of their originally assigned double-blind study cohort. Patients were monitored for vital signs, cardiac activity, neuropsychological performance and safety laboratory parameters.

[3] = tested on: MCI (mild cognitively impaired) patients; test: Cognitive tests in open label extension study of CHF 5074 in MCI patients; assay type: in vivo, human
Method: (§2) In Example 1, the safety and tolerability and cognitive effects of CHF 5074 was analyzed after prolonged treatment in MCI (mild cognitively impaired) patients.
as §1

[4] = tested on: MCI (mild cognitively impaired) patients; test: Safety and tolerability after prolonged treatment in MCI patients; assay type: in vivo, human
Method: as §2, §1

[5] = tested on: human APP transgenic mice models of AD; conditions: transgenic mouse models of AD; cited from earlier work
[6] = tested on: cognitively normal elderly subjects; conditions: cited from earlier work
[7] = tested on: patients with mild cognitive impairment (MCI); conditions: cited from earlier work
β-amyloid = conditions: cited from earlier work
[8] = APOE4 non-carriers, Study Week 64

β-amyloid, sequence (P05067 672-711 limits assumed): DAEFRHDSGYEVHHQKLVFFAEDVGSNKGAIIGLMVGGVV

Compound: O=C(O)C1(c2ccc(-c3ccc(Cl)c(Cl)c3)c(F)c2)CC1 [CHF 5074, 1-(3′,4′-dichloro-2-fluorobiphenyl-4-yl)cyclopropanecarboxylic acid]
- M1 inflammatory activity of microglia (microglia): blunting or inhibiting M1 inflammatory activity
- M2 phagocytic responses of microglia (microglia): stimulating M2 phagocytic responses
- CSF biomarkers of neuroinflammation, TNF-α and sCD40L [1]: lowers, in a dose-dependent fashion
- Aβ42 inhibitory activity (Aβ42): selective Aβ42 inhibitory activity
- oral absorption ([2]; po): good oral absorption
- brain penetration [2]: satisfactory brain penetration
- half-life [2]: long half-life
- effects on Notch processing (Notch): lack of effects on Notch processing
- neuroinflammation biomarkers (CSF sCD40L and TNF-α) (sCD40L and TNF-α): dose-dependently lowered
- verbal memory, week 88 change from baseline, comparison of doses ([3]; 200 mg/day and 400 mg/day compared to 600 mg/day (FIG. 1)): surprisingly superior
- verbal memory at week 88 (number of words) ([3]; 200 mg/day and 400 mg/day doses (FIG. 8)): dose-dependent improvement
- improvements as share of Baseline scores ([3]; APOE4 carriers, Immediate Word Recall and Trail Making Test-A, Study Week 64): 25-38%
- Immediate Word Recall, improvement compared to Baseline ([3]; APOE4 carriers, Study Week 64, p=0.012 vs non-carriers): +5.4±1.2 words
- Trail Making Test-A, improvement compared to Baseline ([3]; APOE4 carriers, Study Week 64, p=0.034 vs non-carriers): -12.4 ± 2.8 s
- Immediate Word Recall, improvement compared to Baseline [3, 8]: +1.4±0.9 words
- Trail Making Test-A, improvement compared to Baseline [3, 8]: -5.6 ± 3.3 s
- Digit Symbol Substitution Test, improvement compared to Baseline ([3]; interim analysis, 32 patients reaching Study Week 64, p<0.001): +4.8±1.1 matches
- Immediate Word Recall, improvement compared to Baseline ([3]; interim analysis, 32 patients reaching Study Week 64, p=0.001): +2.9±0.8 words
- Trail Making Test-A, improvement compared to Baseline ([3]; interim analysis, 32 patients reaching Study Week 64, p=0.002): -8.1 ± 2.4 s
- Delayed Word Recall, improvement compared to Baseline ([3]; interim analysis, 32 patients reaching Study Week 64, p=0.003): +1.3±0.4 words
- Trail Making Test-B, improvement compared to Baseline ([3]; interim analysis, 32 patients reaching Study Week 64, p=0.004): -14.5 ± 4.6 s
- diarrhea, patients reporting ([4]; 200 mg/day): 1.4%
- diarrhea, patients reporting ([4]; 400 mg/day): 6.3%
- drop-outs for adverse events ([4]; 400 mg/day group, at Study Week 40 (pneumonia)): one
- diarrhea, patients reporting ([4]; 600 mg/day): 16.0%
- drop-outs for adverse events ([4]; 600 mg/day group, at Study Week 40 (serum creatinine elevation and worsening of cognitive function)): two
- safety profile ([4]; MCI patients): acceptable safety profile
- tolerability ([4]; prolonged treatment at doses up to and including 400 mg/day): well tolerated
- brain plaque deposition [5]: prevent brain plaque deposition; also recorded: inhibit brain plaque deposition
- memory deficits [5]: attenuate memory deficits; also recorded: attenuate or reverse associated memory deficits

Compound: COc1ccc2cc([C@H](C)C(=O)O)ccc2c1 [naproxen]
- protection from the onset of AD compared to placebo ([6]; 4-year follow-up assessment): 67%
- incidence of dementia ([6]; after two years of treatment): neither drug reduced the incidence of dementia

Compound: CS(=O)(=O)c1ccc(C2=C(c3ccccc3)C(=O)OC2)cc1 [rofecoxib]
- outcome of secondary prevention study [7]: negative

Compound: MABT5102A: humanized monoclonal antibody against human Aβ1-40 and Aβ1-42 with an IgG4 backbone which reduces effector function
- binding to β-amyloid species (β-amyloid): binds to soluble, oligomeric and fibrillar β-amyloid deposits
